“Also recorded” adds a separate entry of the source. Read-outs that look alike come from different tables or passages of the source.
Experiments:
[1] = target: T1, human neutrophil elastase (Homo sapiens, UniProt P08246); assay: In vitro inhibitor specificity: neutrophil elastase activity; assay type: biochemical
T1 construct: This commercial product was purified from human serum by HPLC; purchased Calbiochem; host or cells: purified from human serum
T1 sequence (P08246 30-267): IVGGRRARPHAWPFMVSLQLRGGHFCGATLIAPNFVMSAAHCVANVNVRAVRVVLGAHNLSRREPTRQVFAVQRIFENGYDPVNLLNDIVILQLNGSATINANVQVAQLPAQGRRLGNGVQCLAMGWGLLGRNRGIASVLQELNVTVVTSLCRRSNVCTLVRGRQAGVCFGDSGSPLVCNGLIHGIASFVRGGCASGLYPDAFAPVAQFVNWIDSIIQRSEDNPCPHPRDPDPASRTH
Method: Human neutrophil elastase was purchased from Calbiochem (San Diego, Calif., U.S.A.). This commercial product was purified from human serum by HPLC (protein concentration >20 units/mg of protein specific activity; in 50 mM sodium acetate pH 5.5 and 200 mM sodium chloride; purity >95%). […] Porcine pancreatic elastase was purchased from Calbiochem and was purified from porcine pancreas. The specific activity was 50 units/mg of protein in 50 mM potassium phosphate buffer, pH 7.0. […]

pancreatic elastase = target: T2, pancreatic elastase (Sus scrofa, UniProt P00772); assay: In vitro inhibitor specificity: pancreatic elastase activity; assay type: biochemical, porcine
T2 construct: was purified from porcine pancreas; purchased Calbiochem; host or cells: purified from porcine pancreas
T2 sequence (P00772 27-266): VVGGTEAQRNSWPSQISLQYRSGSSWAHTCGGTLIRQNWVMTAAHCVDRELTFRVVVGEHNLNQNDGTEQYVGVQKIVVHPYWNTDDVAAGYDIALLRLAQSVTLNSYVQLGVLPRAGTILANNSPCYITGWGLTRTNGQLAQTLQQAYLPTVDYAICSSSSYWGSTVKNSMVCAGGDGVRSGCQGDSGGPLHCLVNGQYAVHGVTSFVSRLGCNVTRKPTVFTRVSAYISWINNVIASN
Method: (§1) Caerulein was obtained from Pharmacia, Freiburg, Germany. Human neutrophil elastase was purchased from Calbiochem (San Diego, Calif., U.S.A.). This commercial product was purified from human serum by HPLC (protein concentration >20 units/mg of protein specific activity; in 50 mM sodium acetate pH 5.5 and 200 mM sodium chloride; purity >95%). Human myeloperoxidase was purchased from Calbiochem and purified from blood by HPLC (1 mg/10 ml protein concentration, 150 to 200 units mg protein specific protein activity, in 100 mM sodium chloride, 50 mM sodium acetate, purity >95%). Porcine pancreatic elastase was purchased from Calbiochem and was purified from porcine pancreas. […]
(§2) The trypsin activity (10 mU), myeloperoxidase activity (100 mU) and the neutrophil elastase activity (10 mU) was determined by using the specific fluorogenic substrates [CBZ-Ile-Pro-Arg]2-rhodamine 110 or [CBZ-Ala4]-aminomethylcoumarin (AMC) in 100 mM tris-HCl buffer (pH 8.0), which contained 5 mM CaCl2, 10 μM substrate (final concentration) and 10 mU of bovine trypsin in a volume of 150 μl, at an excitation wavelength of 485 nm and an emission wavelength of 530 nm or an excitation wavelength of 350 nm and an emission wavelength of 460 nm at 37° C. The initial rates of the substrate hydrolysis were measured as arbitrary fluorescence units per minute. […]

trypsin = target: T3, trypsin (Bos taurus, UniProt P00760); assay: In vitro inhibitor specificity: trypsin activity; assay type: biochemical, bovine; conditions: compound II 1 nM to 1 mM
T3 sequence (P00760 24-246): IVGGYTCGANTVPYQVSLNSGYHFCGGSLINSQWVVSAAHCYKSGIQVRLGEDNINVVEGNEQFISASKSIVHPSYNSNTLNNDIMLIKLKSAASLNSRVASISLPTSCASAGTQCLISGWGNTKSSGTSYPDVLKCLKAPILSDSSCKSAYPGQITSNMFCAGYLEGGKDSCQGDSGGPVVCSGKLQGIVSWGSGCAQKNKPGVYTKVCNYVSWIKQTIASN
Method: The trypsin activity (10 mU), myeloperoxidase activity (100 mU) and the neutrophil elastase activity (10 mU) was determined by using the specific fluorogenic substrates [CBZ-Ile-Pro-Arg]2-rhodamine 110 or [CBZ-Ala4]-aminomethylcoumarin (AMC) in 100 mM tris-HCl buffer (pH 8.0), which contained 5 mM CaCl2, 10 μM substrate (final concentration) and 10 mU of bovine trypsin in a volume of 150 μl, at an excitation wavelength of 485 nm and an emission wavelength of 530 nm or an excitation wavelength of 350 nm and an emission wavelength of 460 nm at 37° C. The initial rates of the substrate hydrolysis were measured as arbitrary fluorescence units per minute. The cathepsin B activity (100 mU) and cathepsin L activity (100 mU) were then determined in 0.25 M sodium acetate buffer (pH 5.0), which contained 2 mM EDTA 1 mM DTT, 10 μM of the specific substrate CBZ-[Arg]2-aminomethylcoumarin or 10 μM [CBZ-Phe-Arg]-rhodamine 110 (final concentration) in a final volume of 150 μl, at an excitation wavelength of 350 nm and an emission wavelength of 460 nm or 485 nm and an emission wavelength of 530 nm at 37° C.
The results were calculated in percent of the initial enzyme activity (Kukor et al., 2002).

myeloperoxidase = target: T4, myeloperoxidase (Homo sapiens, UniProt P05164); assay: In vitro inhibitor specificity: myeloperoxidase activity; assay type: biochemical; conditions: compound II 1 nM to 1 mM
T4 construct: purified from blood by HPLC; purchased Calbiochem; host or cells: purified from blood
T4 sequence (P05164 279-745 limits assumed): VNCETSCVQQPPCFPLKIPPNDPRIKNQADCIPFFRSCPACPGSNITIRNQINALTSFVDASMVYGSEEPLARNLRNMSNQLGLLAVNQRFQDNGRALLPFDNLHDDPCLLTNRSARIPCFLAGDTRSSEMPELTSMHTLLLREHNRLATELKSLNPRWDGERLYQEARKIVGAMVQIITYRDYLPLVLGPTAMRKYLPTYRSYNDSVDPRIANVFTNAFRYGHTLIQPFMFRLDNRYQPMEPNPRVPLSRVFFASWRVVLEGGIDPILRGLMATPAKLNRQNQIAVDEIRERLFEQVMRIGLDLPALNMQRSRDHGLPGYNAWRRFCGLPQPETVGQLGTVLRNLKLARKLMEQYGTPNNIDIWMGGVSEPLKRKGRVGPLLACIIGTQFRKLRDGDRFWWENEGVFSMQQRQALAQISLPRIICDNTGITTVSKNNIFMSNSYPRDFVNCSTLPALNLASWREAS
T4 sequence (P05164 165-273 limits assumed): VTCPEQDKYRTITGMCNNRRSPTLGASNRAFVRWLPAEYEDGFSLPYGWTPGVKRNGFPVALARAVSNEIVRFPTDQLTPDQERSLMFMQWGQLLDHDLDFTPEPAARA
Method: as §1, §2

cathepsin B = target: T5, cathepsin B (Homo sapiens, UniProt P07858); assay: In vitro inhibitor specificity: cathepsin B activity; assay type: biochemical; conditions: compound II 1 nM to 1 mM
T5 construct: This commercial product was purified from human liver by HPLC; purchased Calbiochem; host or cells: purified from human liver

cathepsin L = target: T6, cathepsin L (Homo sapiens, UniProt P07711); assay: In vitro inhibitor specificity: cathepsin L activity; assay type: biochemical; conditions: compound II 1 nM to 1 mM
T6 construct: prepared from human liver; purchased Calbiochem; host or cells: prepared from human liver
T6 sequence (P07711 114-333): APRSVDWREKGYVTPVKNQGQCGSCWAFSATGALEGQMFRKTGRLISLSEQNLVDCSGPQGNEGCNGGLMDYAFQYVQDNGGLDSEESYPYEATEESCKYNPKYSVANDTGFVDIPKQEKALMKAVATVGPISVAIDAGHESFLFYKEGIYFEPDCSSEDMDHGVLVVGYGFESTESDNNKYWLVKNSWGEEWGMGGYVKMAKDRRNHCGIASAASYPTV

[2] = Pharmacokinetics (half-life, AUC, bioavailability); parameters: species or system rats, hamsters and dogs; conditions: rat, hamster, dog, in vivo
neutrophil elastase = assay: Inhibition of neutrophil elastase after oral or intravenous administration; assay type: in vivo
[3] = system: caerulein-induced pancreatitis; assay: Pancreatic water content (edema) in caerulein-induced pancreatitis; assay type: in vivo, rat; conditions: oral 240 mg/kg per day
Method: (§3) Male Wistar rats (140 to 250 g) were anesthetized with pentobarbital (30 mg/kg). A cannula was placed in the jugular vein, and a supramaximal concentration of caerulein (10 μg/kg per hour) was administered to the animals by infusion for four and twelve hours. […] Animals which received a saline solution as infusion and were fed with compound II through a tube served as control. Each treatment group consisted of five animals. After the exsanguination under ether anesthesia, the pancreas was quickly removed and freed of fat, and tissue blocks were fixed in 5% paraformaldehyde for the histology in paraffin-embedded sections. The largest portion of the pancreas was frozen in liquid nitrogen and stored at −80° C. for later protein analysis and for detection of the enzyme activity.
(§4) The animals were sacrificed after four and twelve hours, and pancreatic tissue, serum and lung tissue were collected for further analyses (see FIG. 2).
Determination of the pancreatic water content: the water content of the pancreas was determined by comparing the freshly obtained tissue (wet weight) with the weight of the same sample after drying (dry weight). In order to ensure complete drying, the tissue was incubated at […] for 24 hours, a constant weight being reached. The results were represented as percentage of the difference between the wet weight and the dry weight divided by the original wet weight.

[4] = system: caerulein-induced pancreatitis; assay: Myeloperoxidase activity in pancreatic homogenates in caerulein-induced pancreatitis; assay type: in vivo, rat; conditions: oral 240 mg/kg per day
Method: as §3, §4
To measure the myeloperoxidase (MPO) activity, the tissue was thawed and homogenized on ice in 20 mM potassium phosphate buffer (pH 7.4) and centrifuged at 20 000 g at 4° C. for 10 minutes. The pellet was resuspended in […] potassium phosphate buffer (pH 6.0) which contained 0.5% cethyltrimethylammonium bromide. […]
The original increase in the absorption at 450 nm was measured at room temperature using a Dynatech MR 5000 ELISA reader. […]

[5] = system: caerulein-induced pancreatitis; assay: Morphological damage of the pancreas in caerulein-induced pancreatitis; assay type: in vivo, rat
Method: as §3, §4

[6] = system: caerulein-induced pancreatitis; assay: Serum amylase activity (hyperamylasemia) in caerulein-induced pancreatitis; assay type: in vivo, rat; conditions: oral administration; four and twelve hours of pancreatitis
Method: as §3, §4

[7] = system: caerulein-induced pancreatitis; assay: Myeloperoxidase activity and morphology of the lung during caerulein-induced pancreatitis; assay type: in vivo, rat
Method: as §3, §4
Pancreatitis influences not only the pancreas but also leads to a systemic inflammatory response which affects other organs such as the kidneys or the lung. […] The morphological differences in the lung tissues during caerulein-induced pancreatitis consisted of accumulations of alveolar fluid and a progressive thickening, hyperemia and neutrophil infiltration of the intraalveolar tissue. […]

[8] = compound II together with caerulein

With `COc1ccc(C(=O)N[C@H](C(=O)N2CCC[C@H]2C(=O)N[C@H](C(=O)C(F)(F)F)C(C)C)C(C)C)cc1` [compound II] as the compound, how does the “inhibitory activity for human neutrophil elastase by comparison with pancreatic elastase” value [1] read?
The value was “five times higher”.

And the Ki (pancreatic elastase)?
Its Ki is 200 nM.

And the IC50 (pancreatic elastase; FIG. 1)?
Its IC50 is 1000 nM.

And the “influence on trypsin activity” value (trypsin)?
Its value is “not significantly influenced”.

And the “influence on trypsin activity” value (trypsin; listed as Compound II)?
Its value is “does not inhibit”.

And the “influence on myeloperoxidase activity” value (myeloperoxidase)?
Its value is “not significantly influenced; also recorded: excluded”.

What about the “influence on myeloperoxidase activity” value (myeloperoxidase; listed as Compound II) of the same compound?
The value was “does not inhibit”.

What about the “influence on cathepsin B activity” value (cathepsin B) of the same compound?
Its value is “not significantly influenced”.

And the “influence on cathepsin B activity” value (cathepsin B; listed as Compound II)?
The value was “does not inhibit”.

What about the “influence on cathepsin L activity” value (cathepsin L) of the same compound?
The value was “not significantly influenced”.

What about the “influence on cathepsin L activity” value (cathepsin L; listed as Compound II) of the same compound?
Its value is “does not inhibit”.

And the AUC ([2]; intravenous, read-out: intravenous AUC)?
The AUC was 1360 to 3180 ng·h/mL.

What about the bioavailability ([2]; oral versus intravenous AUC, read-out: percentage bioavailability) of the same compound?
The bioavailability was 26 to 82%.

And the AUC ([2]; oral, read-out: oral bioavailability (AUC))?
The AUC was 355 to 1400 ng·h/mL.

What about the half-life ([2]; rats, hamsters and dogs, read-out: biological half-life) of the same compound?
The half-life was 0.82 to 2 h.

What about the “dose to inhibit 50% of the enzyme activity” value (neutrophil elastase; intravenous administration) of the same compound?
The value was 0.59 mg/kg of body weight.

What about the “dose to inhibit 50% of the enzyme activity” value (neutrophil elastase; oral administration) of the same compound?
The value was 4.9 mg/kg of body weight.

And the “inhibition of neutrophil elastase” value (neutrophil elastase; oral administration of 10 mg/kg of body weight)?
The value was 84%.

What about the “change in the water content of the pancreas” value ([3]; compound II alone (control 2), no caerulein) of the same compound?
The value was “did not lead to a significant change”.

What about the “formation of pancreatic edemas (water content)” value ([3]; four and twelve hours after starting caerulein infusion) of the same compound?
The value was “significant reduction”.

And the “reduction in MPO activity in pancreatic tissue” value [4]?
Its value is “more than 50%”.

And the “morphological changes like those observed in acute pancreatitis” value ([5]; compound II alone, no caerulein)?
The value was “did not lead to any morphological changes”.

What about the “development of the interstitial edema and the intracellular vacuolization” value [5, 8] of the same compound?
The value was “prevented”.

And the “number of infiltrating inflammatory cells in pancreas” value [5, 8]?
The value was “greatly reduced”.

What about the “amylase activity in serum” value [6] of the same compound?
Its value is “significantly reduced”.

And the “morphological differences in lung tissue (alveolar fluid, thickening, hyperemia, neutrophil infiltration)” value [7]?
Its value is “reduced”.

And the “MPO activity in lung tissue” value ([7]; effect greater after twelve than four hours)?
The value was “significant reduction”.

From patent US20090042969A1, “Use of Specific Trifluoromethyl Ketones for Preventing and Treating Pancreatitis” (priority 2005, published 2009)
